According to US20240050385A1, “METHODS OF TREATING LEPTOMENINGEAL METASTASIS” (MEMORIAL SLOAN-KETTERING CANCER CENTER, priority 2020, published 2024):
“Also recorded” adds a separate entry of the source. Structures can show the parent of a compound that is named as a salt.

Experiments:
LLC-LeptoM model = assay: Immune cell composition in CSF of LLC-LeptoM model (flow cytometry); assay type: in vivo, mouse; settings: day 10, in words
Text: (§1) FIG. 16A-16L. Iron chelator treatment reduces CSF iron. (A) Experimental scheme. Mice were inoculated with 2×10^3 cells intrathecally on day 0. Treatment with either vehicle, DFO, or D-pen was commenced on either day 1 or day 7 and continued every third day for a total of 7 doses. (B) Chelators delivered intrathecally. DFO, Deferoxamine. D-Pen, D-Penicillamine. (C-F) Intracellular iron (C and E) and viability (D and F) of PC9-LeptoM cells and MDA231-LeptoM cells after treatment with chelators in different concentrations (0 μM, 1 μM, 10 μM and 100 μM). n=3-4 per group in each of two independent experiments. * indicates p<0.05, ** indicates p<0.01, ***indicates p<0.001, **** indicates p<0.0001 (unpaired t test). Data represent mean±SEM. (G) Growth of PC9-LeptoM tumor after treatment indicated in (A). Left: in vivo BLI imaging in day 28 post-inoculation. n=8-10 per group in each of two independent experiments. Right: Representative BLI images. **** indicates p<0.0001. Data represent mean±SEM. (H) Kaplan-Meier survival curve from (C) and (E). p<0.0001. (I and J) Total iron concentration measured in CSF samples of mice with treatment of chelators in PC9-LeptoM Model (I) in MDA231-LeptoM model (J). NS=not significant, * indicates p<0.05, ** indicates p<0.01 (unpaired t test). Data represent mean±SEM. (K and L) Immune cell composition in CSF of LLC-LeptoM model with the treatment of vehicle, DFO, or D-pen at day 10. n=6 per group. NS=not significant, * indicates p<0.05, ** indicates p<0.01 (unpaired t test). Data represent mean±SEM.
Flow cytometry analysis and sorting. For cytometric bead assay, CSF from control mice or mice bearing LLC LeptoM cells was collected on day 14 as described above. Levels of cytokines were measured using LEGENDplex Mouse Inflammation Panel (13-plex; 740446, Biolegend) as recommended by manufacturer in technical duplicates. Data was processed using LEGENDPlex Software (Biolegend). For flow cytometric analysis of CSF and meningeal cells, mice were transcardially perfused though left ventricle with saline using standard procedures (16). Then, CSF was collected by cisternal tap as described above. Next, cranial vault was removed, brain was collected and basilar meninges were washed with PBS. Surface of the brain and ventricular spaces were washed with PBS. CSF, cavity and brain washouts were pooled and processed for staining. For analysis of peripheral leukocytes, blood was collected from deeply anesthesized mice using cardiac puncture. Spleen was collected from perfused animals, minced, and mechanically dissociated using GentleMACS (Miltenyi Biotec). […] Phagocytic activity and respiratory burst were analyzed using E. coli Phagocytosis Assay Kit (FITC conjugate, Cayman Chemicals, 601370) and CellRox Green Flow Cytometry (Thermo Fisher, C10492), as recommended. […]

LeptoM cells = assay: Cell Viability Assay / growth after chelator treatment; assay type: cell-based, human; settings: PC9-LeptoM and MDA231-LeptoM; in words
Text: as §1, with “NS=not significant, * indicates p<0.05, ** indicates p<0.01 (unpaired t test). Data represent mean±SEM. (K and L) Immune cell composition in CSF of LLC-LeptoM model with the treatment of vehicle, DFO, or D-pen at day 10. n=6 per group. NS=not significant, * indicates p<0.05, ** indicates p<0.01 (unpaired t test). Data represent mean±SEM.” left out
Cell Viability Assay. […] The CellTiter-Glo Luminescent Cell Viability Assay (Promega G9241) was used to quantify viable cells in culture according to the manufacturer's protocols. […]

[1] = IT-DFO dose escalation toxicity in healthy C57BL6/J mice; assay type: in vivo, mouse
Description: An IT-DFO dose escalation experiment was completed to determine the lethal dose to 10% of rodents (LD10) and any dose-dependent toxicities to the systemic circulation and organ function in a mouse model. In this study, healthy C57BL6/J mice were injected intracistemally with either PBS (control) or with a fixed dose of DFO (0.05 μM, 1 μM, 10 μM, 50 μM and 100 μM) in replicate at a schedule of twice weekly for a total of 6 weeks (42 days). Mice were monitored for weekly weights and survival trends. Remaining mice were sacrificed on day 46 and circulating blood collected via cardiac puncture. Blood was sent for complete blood count (CBC) with automated differential and complete metabolic panels (CMP).

## CC(C)(S)[C@@H](N)C(=O)O [D-Pen, D-penicillamine]
LLC-LeptoM model
  number (percentage) of CSF macrophages: slightly reduced
  numbers of neutrophils, T cells and monocytes in CSF: not affected

## CC(=O)N(O)CCCCCNC(=O)CCC(=O)N(O)CCCCCNC(=O)CCC(=O)N(O)CCCCCN [DFO, Deferoxamine mesylate]
LeptoM cells
  growth of the LeptoM cells: substantially suppressed; also recorded: dramatically suppressed
LLC-LeptoM model
  number (percentage) of CSF macrophages: slightly reduced; also recorded: only mildly reduced
  numbers of neutrophils, T cells and monocytes in CSF: not affected
[1]; 10 μM group, one mouse died at day 24, total N=12
  lethality with cumulative twice weekly dosing (LD for % rodents): 8.3%
[1]; 50 μM group, one mouse died at day 46, total N=8
  lethality with cumulative twice weekly dosing (LD for % rodents): 12.5%
[1]; any tested concentration (0.05, 1, 10, 50, 100 μM)
  lethality following a single dose: no mice died
[1]; mouse, in vivo
  tolerability of intracisternal administration: well tolerated
